Experimental data: patent US10399966B2, “Compounds for treatment of trypanosomes and neurological pathogens and uses thereof” (The University of North Carolina at Chapel Hill, priority 2016, dated 2019)
Read-outs that look alike come from different tables or passages of the source.

How the values were obtained:
T. b. brucei = assay: In vitro antitrypanosomal activity against T. brucei (growth inhibition); format: cell-based, Trypanosoma brucei; conditions: Trypanosoma brucei; for EC90: read-out: T. brucei EC90
Protocol: Primary hits from the screen were further characterized using a dose-response assay format to determine the EC50. In parallel, the cytotoxicities of these compounds were determined against a proliferating human hepatoma cell line (Huh7). […] SI—CC50/EC50). The final set of confirmed T. brucei hits consisted of 1035 inhibitors. […] In vitro antitrypanosomal activities against T. b. rhodesiense (STIB9000) and cytotoxicities against L6 rat myoblast cells were measured following established protocols (Orhan et al., Mar. Drugs 8:47 (2010). […] All wells including negative controls contained a final of 0.4% DMSO. After incubation of the plates at 37° C. for 48 h, the parasite density was determined using the CellTiter-Glo reagent (Promega), a firefly luciferase assay system that measures the amount of cellular ATP present in plate wells.

Trypanosoma cruzi = assay: Efficacy against T. cruzi in vitro; format: cell-based; conditions: Trypanosoma cruzi, Table 10; for EC50: read-out: T.cruzi EC50; for EC90: read-out: T.cruzi EC90
[1] = Distribution between mouse plasma and brain (brain penetration, ip); format: in vivo; conditions: for Brain/plasma ratio / [compound]Brain / [compound]Plasma: Table 14, mice, single ip dose 5 mg/kg, one hour post-dose; for [compound]Brain / [compound]Plasma: ± SEM of 3 mice (compound 3: 6 mice); for Kp at 1 h / concentration at 1 h: mouse, intraperitoneal, 5 mg/kg; for Kp at 1 h: brain and plasma, read-out: Average brain/plasma ratio
Protocol: For distribution of compounds between mouse plasma and brain, mice (in groups of 3) were injected with test compounds (5 mg/kg ip) and sacrificed at the indicated times for collection of plasma and brain. Compound was dissolved in 0.4 mL of dosing solution (7% Tween 80, 3% ethanol, 5% DMSO, 0.9% saline) for ip injections. The brains were weighed and immediately frozen, then later homogenized in acetonitrile using a Dounce homogenizer. Prior to animal studies, recovery of test compound was carried out by adding a known amount to a mouse brain in the test extraction solvent and performing the homogenization. Compound recovery was determined by liquid chromatography/tandem mass spectrometry analysis relative to a standard compound amount. Blood was taken from the same mice in heparinized capillary tubes (Fisherbrand) for determination of compound concentration in plasma. The concentration of compound in the brain was obtained by dividing the moles of compound in the brain by the brain volume (obtained from the brain weight assuming 1 g is 1 mL) and correcting for the brain vasculature volume of 2.5% by weight.
Brain penetration studies (Table 14) were initially performed upon compounds 1, 2, and 3, but were expanded to include other compounds in order to explore the SAR of brain penetration. Groups of three mice were given single 5 mg/kg ip doses of the test compounds and were sacrificed 1 h post-dose.

human hepatocytes HepG2 = assay: Cytotoxicity against HepG2 cells; conditions: for EC50: Homo sapiens, HepG2, read-out: HepG2 EC50; for EC90: read-out: HepG2 EC90, concentration required to inhibit growth by 90%, human hepatocytes
[2] = tested on: human lymphocytes CRL-8155; assay: Cytotoxicity against CRL-8155 cells; conditions: human lymphoblasts; for EC50: read-out: CRL-8155 EC50, concentration required to inhibit growth by 50%; for EC90: read-out: CRL-8155 EC90, concentration required to inhibit growth by 90%
Protocol: The selectivity of each compound for the parasite over each of the two cell lines was calculated.

[3] = Metabolic stability in human liver microsomes; format: in vitro ADME; conditions: Table 12; for Human microsomes t1/2 / half-life at 1.5 μM: 37° C., NADPH (1 mM), microsomes 0.5 mg/mL, test compounds 1.5 μM; for Human microsomes, percentage of compound remaining: after 60 min (where t1/2 > 60 min); for half-life at 1.5 μM: both sexes, human, liver microsomes, pH 7.4, read-out: Human microsomes t1/2
Protocol: (§1) Metabolic stability was evaluated using liver microsomes derived from mouse and human sources. Microsomal incubations were carried out according to a protocol described previously (Wang et al., Antimicrob. Agents Chemother. 54:2507 (2010)) with modifications. Briefly, substrate stock solutions were prepared in DMSO and DMSO content was kept at 0.5% (v/v) in final incubations. Incubation mixtures ([…]), liver microsomes (0.5 mg/mL) from mouse (pool of 1000, CD-1 male mouse) or human (pool of 50, mixed gender) (XenoTech LLC, Lenexa, Kans.) in a phosphate buffer (100 mM, pH 7.4) containing 3.3 mM MgCl2. After a 5-minute pre-equilibration period at 37° C., reactions (in triplicate) were initiated by adding the NADPH cofactor (1 mM). For NADPH-independent reactions, the cofactor was replaced with water. Aliquots (10 μl) of the reaction mixtures were removed at 0, 15, 30, and 60 minutes and individually mixed with 200 μL of ice-cold acetonitrile containing internal standard. The mixtures were vortex-mixed, and precipitated protein was removed by centrifugation at 2,250×g for 15 min. The supernatant fractions were dried using a 96-well microplate evaporator (Apricot Designs Inc., Covina, Calif.) under N2 at 50° C. and reconstituted with 100 μL 50% methanol containing 0.1% trifluoroacetic acid before UPLC-MS/MS analysis. In vitro half-life (t1/2) was obtained by analyzing the substrate concentration vs. incubation time curve using the one-phase exponential decay model (GraphPad Prism® 5.0, San Diego, Calif.).

[4] = Metabolic stability in mouse liver microsomes; format: in vitro ADME; conditions: Table 12; 37° C., NADPH (1 mM), microsomes 0.5 mg/mL, test compounds 1.5 μM
Protocol: as §1

[5] = Table 7, read-out: T. brucei EC50
[6] = Table 11, read-out: T. b. brucei EC50
[7] = Table 9, read-out: T. brucei EC50
[8] = brain, Table 7, groups of 3 mice, read-out: Average [compound] brain
[9] = plasma, Table 7, groups of 3 mice, read-out: Average [compound] plasma
[10] = Table 12, read-out: T. b. brucei EC50
[11] = Table 8, read-out: T. brucei EC50
[12] = brain, Table 8, groups of 3 mice (compound 3: ± SEM of 6 mice), read-out: Average [compound] brain
[13] = plasma, Table 8, groups of 3 mice (compound 3: ± SEM of 6 mice), read-out: Average [compound] plasma

| SMILES | EC50 (T. b. brucei; [6]) [nM] | EC50 (T. b. brucei; [7]) [nM] | EC90 (T. b. brucei; Table 9) [nM] | EC50 (Trypanosoma cruzi) [nM] | EC90 (Trypanosoma cruzi) [nM] | Brain/plasma ratio [1] | [compound]Brain [1] [µM] | [compound]Plasma [1] [µM] | EC50 (human hepatocytes HepG2) [nM] | EC90 (human hepatocytes HepG2) [nM] | melting point [°C] | EC50 [2] [nM] | EC90 [2] [nM] | EC50 (T. b. brucei; [10]) [nM] | Human microsomes t1/2 [3] [min] | Mouse microsomes t1/2 [4] [min] | further results |
| --- | --- | --- | --- | --- | --- | --- | --- | --- | --- | --- | --- | --- | --- | --- | --- | --- | --- |
| O=C(Nc1ccc2sc(-c3cccc(F)c3F)nc2c1)N1CCCC1 [Compound 5, 2-(2,3-Difluorophenyl)-5-(N-pyrrolidylamido)benzothiazole] | 183 | 183 | 394 | 578 | 665 | 1.76 ± 0.032 | 2.31 ± 0.746 | 1.3 ± 0.406 | > 50000 | > 50000 | 194 to 195 | > 50000 | > 50000 |  |  |  | EC50 (T. b. brucei; [5]): 183 nM; Kp at 1 h ([1]; Table 7, groups of 3 mice): 1.76 ± 0.055; concentration at 1 h [1, 8]: 2310 ± 1290 nM; concentration at 1 h [1, 9]: 1300 ± 703 nM |
| O=C(Nc1ccc2sc(-c3cccc(F)c3)nc2c1)N1CCCC1 [Compound 6, 2-(3-Fluorophenyl)-5-(N-pyrrolidylamido)benzothiazole] | 158 | 158 | 391 | 631 | 697 | 1.01 ± 0.037 | 2.28 ± 0.532 | 2.22 ± 0.461 | > 50000 | > 50000 | 232 to 233 | > 50000 | > 50000 | 158 | 37 | 12 | EC50 (T. b. brucei; [5]): 158 nM; Kp at 1 h ([1]; Table 7, groups of 3 mice): 1.01 ± 0.064; concentration at 1 h [1, 8]: 2280 ± 920 nM; concentration at 1 h [1, 9]: 2220 ± 798 nM |
| O=C(Nc1ccc2sc(-c3ccccc3)nc2c1)N1CCCC1 [Compound 7, 2-Phenyl-5-(N-pyrrolidylamido)benzothiazole] | 325 | 325 | 817 | 564 | 861 | 1.24 ± 0.157 | 4.24 ± 0.698 | 3.403 ± 0.328 | > 50000 | > 50000 | 210 to 211 | > 50000 | > 50000 | 325 | 30 | 18 | EC50 (T. b. brucei; [5]): 325 nM; Kp at 1 h ([1]; Table 7, groups of 3 mice): 1.24 ± 0.272; concentration at 1 h [1, 8]: 4240 ± 1210 nM; concentration at 1 h [1, 9]: 3400 ± 569 nM |
| O=C(Nc1ccc2sc(-c3ccc(F)c(F)c3)nc2c1)N1CCCCC1 [Compound 12, 2-(3,4-Difluorophenyl)-5-(N-piperidylamido)benzothiazole] | 223 | 223 | 282 | 429 | 912 | 0.510 ± 0.023 | 1.29 ± 0.156 | 2.52 ± 0.185 | > 50000 | > 50000 | 232 to 233 | > 50000 | > 50000 |  |  |  | EC50 (T. b. brucei; [11]): 223 nM; Kp at 1 h ([1]; Table 8, groups of 3 mice): 0.51 ± 0.04; concentration at 1 h [1, 12]: 1290 ± 270 nM; concentration at 1 h [1, 13]: 2520 ± 320 nM |
| O=C(Nc1ccc2sc(-c3ccc(F)c(F)c3)nc2c1)N1CCC(F)CC1 [Compound 13, 2-(3,4-Difluorophenyl)-5-(4-fluoro-N-piperidylamido)benzothiazole] | 341 | 341 | 596 | 1800 | 1990 | 1.01 ± 0.081 | 2.52 ± 0.248 | 2.51 ± 0.203 | > 50000 | > 50000 | 231.5 to 232 | > 50000 | > 50000 |  |  |  | EC50 (T. b. brucei; [11]): 341 nM; Kp at 1 h ([1]; Table 8, groups of 3 mice): 1.01 ± 0.14; concentration at 1 h [1, 12]: 2530 ± 430 nM; concentration at 1 h [1, 13]: 2510 ± 352 nM |
| O=C(Nc1ccc2oc(-c3ccccc3)nc2c1)c1ccccc1 [Compound 15, 5-Benzamido-2-phenylbenzoxazole] |  |  |  |  |  |  |  |  |  |  |  |  |  |  | 60 | 17 | EC50 (T. b. brucei; read-out: T. b. brucei EC50): > 10000 nM; EC50 (T. b. brucei; read-out: T. brucei EC50): > 10000 nM; EC90 (T. b. brucei): > 10000 nM |
| O=C(Nc1ccc2oc(-c3ccccc3)nc2c1)N1CCCCC1 [Compound 16, 2-Phenyl-5-N-piperidylamidobenzoxazole] |  | 2800 | 9300 |  |  |  |  |  |  |  | 207 to 209 |  |  | 2800 |  | 11 | Human microsomes, percentage of compound remaining [3]: 77%; half-life at 1.5 μM [3]: > 60 min |
| O=C(Nc1ccc2sc(-c3ccccc3)nc2c1)c1ccccc1 [Compound 17, 5-Benzamido-2-phenylbenzothiazole] |  | 2380 | 7740 |  |  |  |  |  |  |  |  |  |  | 2380 |  | 50 | Human microsomes, percentage of compound remaining [3]: 53%; half-life at 1.5 μM [3]: > 60 min |
| O=C(Nc1ccc2sc(-c3ccccc3)nc2c1)N1CCCCC1 [Compound 23, 2-Phenyl-5-(N-piperidylamido)benzothiazole] | 366 | 366 | 809 | 826 | 1070 |  |  |  | > 50000 | > 50000 | 230 to 232 | > 50000 | > 50000 | 366 |  | 17 | Human microsomes, percentage of compound remaining [3]: 62%; half-life at 1.5 μM [3]: > 60 min |
| O=C(Nc1ccc2sc(-c3cccc(F)c3)nc2c1)N1CCCCC1 [Compound 29, 2-(3-Fluorophenyl)-5-(N-piperidylamido)benzothiazole] | 174 | 174 | 602 | 320 | 503 |  |  |  | > 50000 | > 50000 | 216 to 217 | > 50000 | > 50000 | 174 | 8.9 | 11 |  |
| O=C(Nc1ccc2sc(-c3ccccc3F)nc2c1)N1CCCCC1 [Compound 33, 2-(2-Fluorophenyl)-5-(N-piperidylamido)benzothiazole] | 935 | 935 | 1140 | 843 | 1120 |  |  |  | > 50000 | > 50000 | 213 to 215 | > 50000 | > 50000 |  |  |  |  |
